Reference: PubChem BioAssay AID180 (DTP/NCI, 2004)
Several values for one entry are separate records, joined by “and”; a condition that tells them apart may be missing. Identical values can stand only once.

Test system: BDF1 mice, Adenocarcinoma 755 s.c., tumor weight T/C
Assay: NCI In Vivo Anticancer Drug Screen. Data for tumor model Adenocarcinoma 755 (subcutaneous) in B6D2F1 (BDF1) mice
Details: endpoint: mean tumor weight, higher = larger tumour
Summary of the method: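 Values express treated (T) relative to vehicle-dosed control (C) animals, based on survival or tumour size measured after compound treatment of mice bearing a transplanted tumour.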

[1] = dose: 6.25 mg/kg/injection, schedule: Q01DX011 (ip), vehicle: methylcellulose (MC)
[2] = dose: 12.0 mg/kg/injection, schedule: Q01DX011 (ip), vehicle: carboxymethylcellulose (CMC)
[3] = dose: 12.5 mg/kg/injection, schedule: Q01DX011 (ip), vehicle: methylcellulose (MC)
[4] = dose: 30.0 mg/kg/injection, schedule: Q01DX011 (ip), vehicle: carboxymethylcellulose (CMC)
[5] = dose: 60.0 mg/kg/injection, schedule: Q01DX011 (ip), vehicle: carboxymethylcellulose (CMC)
[6] = dose: 120.0 mg/kg/injection, schedule: Q01DX011 (ip), vehicle: carboxymethylcellulose (CMC)
[7] = dose: 25.0 mg/kg/injection, schedule: Q01DX011 (ip), vehicle: carboxymethylcellulose (CMC)
[8] = dose: 50.0 mg/kg/injection, schedule: Q01DX011 (ip), vehicle: carboxymethylcellulose (CMC)
[9] = dose: 100.0 mg/kg/injection, schedule: Q01DX011 (ip), vehicle: carboxymethylcellulose (CMC)

`CCCCn1cnc2c(SCc3ccc(Cl)cc3Cl)nc(N)nc21` was tested, and the T/C (dose: 50.0 mg/kg/injection, schedule: Q01DX011 (ip), vehicle: methylcellulose (MC)) was 61 % of control, the T/C (dose: 100.0 mg/kg/injection, schedule: Q01DX011 (ip), vehicle: methylcellulose (MC)) was 46 % of control and the T/C (dose: 200.0 mg/kg/injection, schedule: Q01DX011 (ip), vehicle: methylcellulose (MC)) was 35 % of control. The T/C (dose: 400.0 mg/kg/injection, schedule: Q01DX011 (ip), vehicle: methylcellulose (MC)) was 5 % of control.
`CCCn1cnc2c(SCc3ccccc3Cl)nc(N)nc21` was tested, and the T/C (dose: 0.78 mg/kg/injection, schedule: Q01DX011 (ip), vehicle: methylcellulose (MC)) was 85 % of control, the T/C (dose: 1.56 mg/kg/injection, schedule: Q01DX011 (ip), vehicle: methylcellulose (MC)) was 72 % of control and the T/C (dose: 3.0 mg/kg/injection, schedule: Q01DX011 (ip), vehicle: carboxymethylcellulose (CMC)) was 70 % of control. The T/C (dose: 3.12 mg/kg/injection, schedule: Q01DX011 (ip), vehicle: methylcellulose (MC)) was 62 % of control, the T/C (dose: 6.0 mg/kg/injection, schedule: Q01DX011 (ip), vehicle: carboxymethylcellulose (CMC)) was 47 % of control and the T/C [1] was 60 % of control. For the same compound, the T/C [2] was 45 % of control, the T/C [3] was 43 % of control and the T/C (dose: 24.0 mg/kg/injection, schedule: Q01DX011 (ip), vehicle: carboxymethylcellulose (CMC)) was 17 % of control. The T/C (dose: 25.0 mg/kg/injection, schedule: Q01DX011 (ip), vehicle: methylcellulose (MC)) was 7 % of control, the T/C (dose: 48.0 mg/kg/injection, schedule: Q01DX011 (ip), vehicle: carboxymethylcellulose (CMC)) was 4 % of control and the T/C (dose: 96.0 mg/kg/injection, schedule: Q01DX011 (ip), vehicle: carboxymethylcellulose (CMC)) was 2 % of control. The T/C (dose: 190.0 mg/kg/injection, schedule: Q01DX011 (ip), vehicle: carboxymethylcellulose (CMC)) was 3 % of control, the T/C (dose: 192.0 mg/kg/injection, schedule: Q01DX011 (ip), vehicle: carboxymethylcellulose (CMC)) was 1 % of control and the T/C (dose: 380.0 mg/kg/injection, schedule: Q01DX011 (ip), vehicle: carboxymethylcellulose (CMC)) was 4 % of control.
In the case of `C[C@H]1C[C@@H]2[C@H](C(=O)C[C@@]3(C)[C@H]2CC[C@]3(O)C(=O)CO)[C@@]2(C)C=CC(=O)C=C12`, the T/C (dose: 50.0 mg/kg/injection, schedule: Q01DX011 (sc), vehicle: steriod suspending solution) is reported as 30 % of control and the T/C (dose: 100.0 mg/kg/injection, schedule: Q01DX011 (sc), vehicle: steriod suspending solution) is reported as 23 % of control.
`Cn1c(N)nc2c(ncn2C2CC(O)C(CO)O2)c1=O` (configuration not stated) was tested, and the T/C [4] was 109 % of control, the T/C [5] was 82 % of control and the T/C [6] was 89 % of control.
`CCOc1ccccc1C(=O)Nc1ccc(Br)cc1` was tested, and the T/C [2] was 66 % of control, the T/C [7] was 45 % of control and the T/C [8] was 40 % of control. The T/C [9] was 28 % of control and 50 % of control, the T/C (dose: 200.0 mg/kg/injection, schedule: Q01DX011 (ip), vehicle: carboxymethylcellulose (CMC)) was 17 % of control and 23 % of control and the T/C (dose: 400.0 mg/kg/injection, schedule: Q01DX011 (ip), vehicle: carboxymethylcellulose (CMC)) was 7 % of control and 32 % of control. The T/C (dose: 400.0 mg/kg/injection, schedule: Q01DX011 (ip), vehicle: saline) was 32 % of control, the T/C (dose: 700.0 mg/kg/injection, schedule: Q01DX011 (ip), vehicle: carboxymethylcellulose (CMC)) was 22 % of control and the T/C (dose: 800.0 mg/kg/injection, schedule: Q01DX011 (ip), vehicle: carboxymethylcellulose (CMC)) was 42 % of control. The T/C (dose: 800.0 mg/kg/injection, schedule: Q01DX011 (ip), vehicle: saline) was 21 % of control.
`CC(=O)OCC1OC(n2cnc3c(Cl)nc(N)nc32)C(OC(C)=O)C1OC(C)=O` (configuration not stated) was tested, and the T/C [4] was 114 % of control, the T/C [5] was 118 % of control and the T/C [6] was 78 % of control. For the same compound, the T/C (dose: 240.0 mg/kg/injection, schedule: Q01DX011 (ip), vehicle: carboxymethylcellulose (CMC)) was 72 % of control.
For `C#CCn1cnc2c(Cl)ncnc21`, the T/C (dose: 5.0 mg/kg/injection, schedule: Q01DX011 (ip), vehicle: carboxymethylcellulose (CMC)) was 61 % of control, the T/C (dose: 15.0 mg/kg/injection, schedule: Q01DX011 (ip), vehicle: carboxymethylcellulose (CMC)) was 48 % of control and the T/C [7] was 13 % of control. For the same compound, the T/C (dose: 35.0 mg/kg/injection, schedule: Q01DX011 (ip), vehicle: carboxymethylcellulose (CMC)) was 14 % of control, the T/C [8] was 8 % of control and the T/C [9] was 3 % of control.
`CC1CN1P(=S)(N1CCCC1)N1CC1C` (configuration not stated) was tested, and the T/C (dose: 14.0 mg/kg/injection, schedule: Q01DX011 (ip), vehicle: carboxymethylcellulose (CMC)) was 82 % of control, the T/C (dose: 14.0 mg/kg/injection, schedule: Q01DX011 (ip), vehicle: saline) was 63 % of control and the T/C (dose: 28.0 mg/kg/injection, schedule: Q01DX011 (ip), vehicle: carboxymethylcellulose (CMC)) was 58 % of control. The T/C (dose: 28.0 mg/kg/injection, schedule: Q01DX011 (ip), vehicle: saline) was 43 % of control, the T/C (dose: 57.0 mg/kg/injection, schedule: Q01DX011 (ip), vehicle: carboxymethylcellulose (CMC)) was 15 % of control and the T/C (dose: 57.0 mg/kg/injection, schedule: Q01DX011 (ip), vehicle: saline) was 21 % of control.
In the case of `CC(C)Sc1nc(N)nc2nc[nH]c12`, the T/C (dose: 1.0 mg/kg/injection, schedule: Q01DX011 (ip), vehicle: saline) is reported as 41 % of control, the T/C (dose: 1.6 mg/kg/injection, schedule: Q01DX011 (ip), vehicle: methylcellulose (MC)) is reported as 16 % of control and the T/C (dose: 3.0 mg/kg/injection, schedule: Q01DX011 (ip), vehicle: saline) is reported as 41 % of control. The T/C (dose: 3.1 mg/kg/injection, schedule: Q01DX011 (ip), vehicle: methylcellulose (MC)) was 11 % of control, the T/C (dose: 6.0 mg/kg/injection, schedule: Q01DX011 (ip), vehicle: saline) was 30 % of control and the T/C [1] was 2 % of control. The T/C (dose: 12.0 mg/kg/injection, schedule: Q01DX011 (ip), vehicle: saline) was 37 % of control, the T/C [3] was 1 % of control and the T/C (dose: 25.0 mg/kg/injection, schedule: Q01DX011 (ip), vehicle: saline) was 17 % of control. The T/C (dose: 50.0 mg/kg/injection, schedule: Q01DX011 (ip), vehicle: saline) was 4 % of control, the T/C (dose: 100.0 mg/kg/injection, schedule: Q01DX011 (ip), vehicle: saline) was 7 % of control and the T/C (dose: 125.0 micrograms/kg/injection, schedule: Q01DX011 (ip), vehicle: saline) was 76 % of control. The T/C (dose: 250.0 micrograms/kg/injection, schedule: Q01DX011 (ip), vehicle: saline) was 77 % of control, the T/C (dose: 500.0 micrograms/kg/injection, schedule: Q01DX011 (ip), vehicle: saline) was 52 % of control and the T/C (dose: 1000.0 micrograms/kg/injection, schedule: Q01DX011 (ip), vehicle: saline) was 80 % of control.
With `CC(C)CSc1nc(N)nc2nc[nH]c12` the T/C (dose: 2.0 mg/kg/injection, schedule: Q01DX011 (ip), vehicle: methylcellulose (MC)) was 46 % of control, the T/C (dose: 4.0 mg/kg/injection, schedule: Q01DX011 (ip), vehicle: methylcellulose (MC)) was 30 % of control and the T/C (dose: 8.0 mg/kg/injection, schedule: Q01DX011 (ip), vehicle: methylcellulose (MC)) was 10 % of control. The T/C (dose: 16.0 mg/kg/injection, schedule: Q01DX011 (ip), vehicle: methylcellulose (MC)) was 6 % of control, the T/C (dose: 32.0 mg/kg/injection, schedule: Q01DX011 (ip), vehicle: methylcellulose (MC)) was 5 % of control and the T/C (dose: 64.0 mg/kg/injection, schedule: Q01DX011 (ip), vehicle: methylcellulose (MC)) was 4 % of control.
For `NCC(N)=O`, the T/C (dose: 100.0 mg/kg/injection, schedule: Q01DX011 (ip), vehicle: other) was 86 % of control, the T/C (dose: 200.0 mg/kg/injection, schedule: Q01DX011 (ip), vehicle: other) was 79 % of control and the T/C (dose: 400.0 mg/kg/injection, schedule: Q01DX011 (ip), vehicle: other) was 56 % of control.
In the case of `Cc1cnc(SCc2ccc(Cl)cc2)nc1Nc1ccc(Cl)cc1Cl`, the T/C (dose: 31.0 mg/kg/injection, schedule: Q01DX011 (ip), vehicle: methylcellulose (MC)) is reported as 97 % of control, the T/C (dose: 62.0 mg/kg/injection, schedule: Q01DX011 (ip), vehicle: methylcellulose (MC)) is reported as 69 % of control and the T/C (dose: 125.0 mg/kg/injection, schedule: Q01DX011 (ip), vehicle: methylcellulose (MC)) is reported as 65 % of control. For the same compound, the T/C (dose: 250.0 mg/kg/injection, schedule: Q01DX011 (ip), vehicle: methylcellulose (MC)) was 65 % of control.
For `CCC(C)Cn1cnc2c(SCc3ccccc3)nc(N)nc21` (configuration not stated), the T/C (dose: 37.5 mg/kg/injection, schedule: Q01DX011 (ip), vehicle: carboxymethylcellulose (CMC)) was 68 % of control, the T/C (dose: 75.0 mg/kg/injection, schedule: Q01DX011 (ip), vehicle: carboxymethylcellulose (CMC)) was 32 % of control and the T/C (dose: 150.0 mg/kg/injection, schedule: Q01DX011 (ip), vehicle: carboxymethylcellulose (CMC)) was 21 % of control. The T/C (dose: 300.0 mg/kg/injection, schedule: Q01DX011 (ip), vehicle: carboxymethylcellulose (CMC)) was 13 % of control.
